Laboratory results reported in publication PMC7897990, “TriTOX: A novel Trichomonas vaginalis assay platform for high-throughput screening of compound libraries” (International Journal for Parasitology: Drugs and Drug …, 2021).
Like-named read-outs stand apart in the source and are kept apart here. Starred links: 1 amine or outer side, 2 acyl side, 3 side chain; linkers in the order of their positions; H or OH if unused. Positions of bridges follow the written chain, without caps; N, C: chain ends. Non-standard residues stand in square brackets, D forms with d. Residues, ends and D or L forms follow the SMILES beside them. *: point of attachment. hTyr(3S-OH,4S-OH,3'-OSO3H) = N[C@H](C(=O)O)[C@H](O)[C@@H](O)c1ccc(O)c(OS(=O)(=O)O)c1; Orn(4R-OH,5R-OH) = O=C([C@H](C[C@@H](O)[C@@H](O)N[*:3])N[*:1])[*:2]; Pro(3S-OH,4S-Me) = C[C@H]1CN[C@H](C(=O)O)[C@H]1O; Gln(3R-OH) = NC(=O)C[C@@H](O)[C@H](N)C(=O)O; Palmitoyl = CCCCCCCCCCCCCCCC(=O)*; Hyp = O=C(O)[C@@H]1C[C@@H](O)CN1

How the values were obtained:
[1] = test system: Trichomonas vaginalis G3 trophozoites; details: for T.vaginalis_Absorbance_Rep1: replicate 1, raw absorbance; for T.vaginalis_Absorbance_Rep2: replicate 2, raw absorbance
[2] = test system: nontumorigenic neonatal foreskin fibroblast (NFF) cell line
[3] = HTS replicate 1, parasite screen 1 µg/mL
[4] = HTS replicate 2, parasite screen 1 µg/mL
[5] = replicate 1, parasite screen at 1 µg/mL
[6] = replicate 2, parasite screen at 1 µg/mL
[7] = parasite screen at 1 µg/mL, replicate 1
[8] = parasite screen at 1 µg/mL, replicate 2
[9] = NFF_NS1 screen at 5 µg/mL, NFF cells
[10] = HTS, parasite screen at 1 µg/mL, replicate 1
[11] = HTS, parasite screen at 1 µg/mL
[12] = HTS, parasite screen at 1 µg/mL, replicate 2
[13] = HTS single concentration, parasite screen 1 µg/mL, replicate 1
[14] = HTS single concentration, parasite screen 1 µg/mL, replicate 2
[15] = NFF_NS1 screen 5 µg/mL, single concentration

Molecule: CC[C@H]1/C=C/C=C/C[C@@H](C)[C@H](O)[C@@](C)(O)C(=O)[C@@H](C)[C@H](O)[C@@H](C)C(=O)[C@@H](C)[C@H](O)[C@@H](C)/C=C/C(=O)O[C@H]2C[C@@]3(CC[C@H](C)[C@H](C[C@@H](C)O)O3)O[C@@H](CC1)[C@H]2C [Oligomycin D]
- T.vaginalis_%inb_Rep1 [1, 3]: 14.35%
- T.vaginalis_%inb_Rep2 [1, 4]: 12.89%
- NFF_Activity [2]: I (key: active (A) compounds having >25% inhibitory activity; otherwise these were reported as inactive (I))

Molecule: COc1cccc2oc3c4c(cc(OC)c3c(=O)c12)OC1OC=CC41 (stereo not shown) [BIA-M1214]
- T.vaginalis_%inb_Rep1 [1, 5]: 13.54%
- T.vaginalis_%inb_Rep2 [1, 6]: 12.19%
- NFF_Activity ([2]; NFF cells, screen at 5 µg/mL): I (otherwise these were reported as inactive (I))

Molecule: CC[C@H]1OC(=O)[C@H](C)[C@@H](O[C@H]2C[C@@](C)(OC)[C@@H](O)[C@H](C)O2)[C@H](C)[C@@H](O[C@@H]2O[C@H](C)C[C@H](N(C)C)[C@H]2O)[C@](C)(O)C[C@@H](C)/C(=N\OCOCCOC)[C@H](C)[C@@H](O)[C@]1(C)O [BIA-R1315]
- T.vaginalis_%inb_Rep1 [1, 7]: 1.36%
- T.vaginalis_%inb_Rep2 [1, 8]: 5.85%
- NFF_Activity [2, 9]: I (otherwise these were reported as inactive (I))

Molecule: CC[C@H]1OC(=O)[C@H](C)[C@@H](O[C@H]2C[C@@](C)(OC)[C@@H](O)[C@H](C)O2)[C@H](C)[C@@H](O[C@@H]2O[C@H](C)C[C@H]([N+](C)(C)[O-])[C@H]2O)[C@](C)(O)C[C@@H](C)C(=O)[C@H](C)[C@@H](O)[C@]1(C)O [Erythromycin A N-oxide]
- T.vaginalis_%inb_Rep1 [1, 10]: 6.03%
- T.vaginalis_Absorbance_Rep1 [1, 11]: 0.821
- T.vaginalis_%inb_Rep2 [1, 12]: 9.83%
- T.vaginalis_Absorbance_Rep2 [1, 11]: 0.756
- NFF_Activity ([2]; NFF_NS1 screen at 5 µg/mL): I (otherwise these were reported as inactive (I))

Molecule: COc1cc2c(c3oc4cccc(O)c4c(=O)c13)[C@@H]1C=CO[C@@H]1O2 [BIA-S1213]
- T.vaginalis_%inb_Rep1 [1, 7]: 10.12%
- T.vaginalis_%inb_Rep2 [1, 8]: 14.32%
- NFF_Activity [2, 9]: I (otherwise these were reported as inactive (I))

Molecule: CN1CCC2(c3cccc4c3NC3N(C)CCC43C34CCN(C)C3Nc3ccccc34)c3ccccc3NC12 (stereo not shown) [BIA-H1941]
- T.vaginalis_%inb_Rep1 [1, 5]: 7.39%
- T.vaginalis_%inb_Rep2 [1, 6]: 6.28%
- NFF_Activity ([2]; NFF cells, screen at 5 µg/mL): A (active (A) compounds having >25% inhibitory activity)

Molecule: CCCCCC[C@H]1C(=O)O[C@H](C)[C@H](NC(=O)c2cccc(NC=O)c2O)C(=O)O[C@@H](C)[C@@H]1OC(=O)CC(C)C [BIA-A1442]
- T.vaginalis_%inb_Rep1 [1, 13]: 17.88%
- T.vaginalis_%inb_Rep2 [1, 14]: 12.87%
- NFF_Activity [2, 15]: I (otherwise these were reported as inactive (I))

Molecule: O=C(O)c1cccc2nc3ccccc3nc12 [Tubermycin B]
- T.vaginalis_%inb_Rep1 [1, 10]: 8.13%
- T.vaginalis_%inb_Rep2 [1, 12]: 16.27%
- NFF_Activity ([2]; NFF fibroblast screen at 5 µg/mL, A = active, I = inactive): I (otherwise these were reported as inactive (I))

Molecule: CN1C(=O)c2ccccc2-n2c(nc3ccccc3c2=O)C1=Cc1ccccc1 [BIA-B1646]
- T.vaginalis_%inb_Rep1 [1, 13]: 16.10%
- T.vaginalis_%inb_Rep2 [1, 14]: 13.67%
- NFF_Activity [2, 15]: I (otherwise these were reported as inactive (I))

Molecule: CC1(C)OC2CC(=O)OCC23C1CC(=O)C1(C)C3CCC2(C)C(c3ccoc3)OC(=O)C3OC321 (stereo not shown) [BIA-L1755]
- T.vaginalis_%inb_Rep1 [1, 5]: 11.46%
- T.vaginalis_%inb_Rep2 [1, 6]: 13.09%
- NFF_Activity ([2]; NFF cells, screen at 5 µg/mL): I (otherwise these were reported as inactive (I))

Molecule: Orfamide A
- T.vaginalis_%inb_Rep1 [1, 3]: 9.99%
- T.vaginalis_%inb_Rep2 [1, 4]: 10.90%
- NFF_Activity ([2]; NFF fibroblasts, single concentration 5 µg/mL): I (otherwise these were reported as inactive (I))

Molecule: CC[C@H](C)[C@H]1O[C@]2(C=C[C@@H]1C)C[C@@H]1C[C@@H](C/C=C(\C)[C@@H](O)[C@@H](C)/C=C/C=C3\CO[C@@H]4[C@H](O)C(C)=C[C@@H](C(=O)O1)[C@]34O)O2 [BIA-A1587]
- T.vaginalis_%inb_Rep1 [1, 13]: 13.62%
- T.vaginalis_%inb_Rep2 [1, 14]: 16.27%
- NFF_Activity [2, 15]: I (otherwise these were reported as inactive (I))

Molecule: CCC1OC(=O)C(C)C(=O)C(C)C(OC2OC(C)CC(N(C)C)C2O)C(C)(OC)CC(C)C(=O)C(C)C2N(CCCCn3cnc(-c4cccnc4)c3)C(=O)OC12C (stereo not shown) [BIA-T1316]
- T.vaginalis_%inb_Rep1 [1, 7]: 0.94%
- T.vaginalis_%inb_Rep2 [1, 8]: 5.97%
- NFF_Activity [2, 9]: I (otherwise these were reported as inactive (I))

Molecule: CCCCCCCCCCCCCCCC(=O)N[C@H]1C[C@@H](O)[C@@H](O)NC(=O)[C@@H]2[C@@H](O)[C@@H](C)CN2C(=O)[C@H]([C@H](O)CC(N)=O)NC(=O)[C@H]([C@H](O)[C@@H](O)c2ccc(O)c(OS(=O)(=O)O)c2)NC(=O)[C@@H]2C[C@@H](O)CN2C(=O)[C@H]([C@@H](C)O)NC1=O [FR 901379] (Palmitoyl-[Orn(4R-OH,5R-OH)]T[Hyp][hTyr(3S-OH,4S-OH,3'-OSO3H)][Gln(3R-OH)][Pro(3S-OH,4S-Me)]; lactam 1-C)
- T.vaginalis_%inb_Rep1 [1, 10]: 12.55%
- T.vaginalis_Absorbance_Rep1 [1, 11]: 0.942
- T.vaginalis_%inb_Rep2 [1, 12]: 13.45%
- T.vaginalis_Absorbance_Rep2 [1, 11]: 0.806
- NFF_Activity ([2]; NFF_NS1 screen at 5 µg/mL): I (otherwise these were reported as inactive (I))

Molecule: CCCCCC(=O)N[C@H]1CCOC1=O [BIA-H1495]
- T.vaginalis_%inb_Rep1 [1, 5]: 10.40%
- T.vaginalis_%inb_Rep2 [1, 6]: 12.70%
- NFF_Activity ([2]; NFF cells, screen at 5 µg/mL): I (otherwise these were reported as inactive (I))
